Results: patent US9409952B2, “Peptide-compound cyclization method” (Chugai Seiyaku Kabushiki Kaisha, priority 2011, dated 2016)
Like-named read-outs stand apart in the source and are kept apart here. Starred links: 1 amine or outer side, 2 acyl side, 3 side chain; linkers in the order of their positions; H or OH if unused. Positions of bridges follow the written chain, without caps; N, C: chain ends. Non-standard residues stand in square brackets, D forms with d. Residues, ends and D or L forms follow the SMILES beside them. *: point of attachment. Phe(4-(CH2)5CO) = O=C([C@H](Cc1ccc(CCCCCC(=O)[*:3])cc1)N[*:1])[*:2]; NMeF = CN[C@@H](Cc1ccccc1)C(=O)O; NMeI = CC[C@H](C)[C@H](NC)C(=O)O; NMeβAla = CN(CCC(=O)[*:2])[*:1]; NMeL = CN[C@@H](CC(C)C)C(=O)O; NMeV = CN[C@H](C(=O)O)C(C)C; NMeA = CN[C@@H](C)C(=O)O; Piperidide = C1CCN(*)CC1; dNMeA = CN[C@H](C)C(=O)O; β3hA = C[C@H](N)CC(=O)O; Sar = CNCC(=O)O

Assays:
[1] = PAMPA (parallel artificial membrane permeability assay); format: in vitro ADME; settings: PAMPA
Summary of the method: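 Artificial membrane was 10% (w/v) egg lecithin plus 0.5% (w/v) cholesterol in dodecane on a PVDF filter. A 10 mM DMSO stock was added at 0.5% (v/v) to donor buffer (50 mM MOPSO, pH 6.5, 5.0% glycocholic acid). After 18 h at 37 °C, LC/MS or LC/UV gave donor and acceptor levels for Pe.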

[2] = Metabolic stability in human hepatic microsome; format: in vitro ADME; settings: microsomes
[3] = membrane permeation rate (Pe), 50 mM MOPSO buffer pH 6.5 with 5.0% glycocholic acid, 37° C., 18 hours, read-out: iPAMPA Pe
[4] = pH 7.4, human hepatic microsome, NADPH(+), read-out: CL NADPH(+)

Row | Compound | Papp at 18 hours, 50 µM ([1]; pH 6.5) | microsomal CLint at 1 uM ([2]; human, pH 7.4, CL NADPH(+)) | Papp at 18 hours, 50 µM [1, 3] | microsomal CLint at 1 uM [2, 4]
1 | CC[C@H](C)[C@@H]1NC(=O)[C@H](C)N(C)C(=O)[C@H]([C@@H](C)O)NC(=O)[C@H](C(C)C)N(C)C(=O)[C@H](C)N(C)C(=O)[C@H](Cc2ccccc2)NC(=O)[C@H](C)NC(=O)C[C@@H](C(=O)N(C)[C@@H](Cc2ccccc2)C(=O)N[C@@H](C)C(=O)N2CCCCC2)NC(=O)[C@H](C)N(C)C(=O)[C@H](CC(C)C)N(C)C1=O [DP-288] (AF[NMeA][NMeV]T[NMeA]I[NMeL][NMeA]D[NMeF]A-Piperidide; lactam N-10) | 18 ×10⁻⁶ cm/s | 80 µL/min/mg |  | 
2 | CC[C@H](C)[C@H]1C(=O)N(C)[C@@H](CC(C)C)C(=O)N[C@H](C(=O)N2CCCCC2)CC(=O)N(C)CCC(=O)N(C)[C@@H](CC(C)C)C(=O)N[C@@H]([C@@H](C)O)C(=O)N(C)[C@@H](C)C(=O)N(C)[C@@H](Cc2ccccc2)C(=O)N[C@@H](C)C(=O)N(C)[C@@H](Cc2ccccc2)C(=O)N[C@@H](CC(C)C)C(=O)N1C [DP-240] ([NMeβAla][NMeL]T[NMeA][NMeF]A[NMeF]L[NMeI][NMeL]D-Piperidide; lactam N-11) |  |  | 38 ×10⁻⁶ cm/s | 125 µL/min/mg
3 | CC[C@H](C)[C@@H]1NC(=O)[C@H](C)N(C)C(=O)[C@H]([C@@H](C)O)NC(=O)[C@H](C(C)C)N(C)C(=O)[C@H](CC(C)C)NC(=O)[C@H](CC(C)C)N(C)C(=O)CN(C)C(=O)C[C@@H](C(=O)N2CCCCC2)NC(=O)[C@H](C)NC(=O)[C@H](Cc2ccccc2)NC(=O)[C@H](Cc2ccccc2)N(C)C1=O [DP-245] ([Sar][NMeL]L[NMeV]T[NMeA]I[NMeF]FAD-Piperidide; lactam N-11) |  |  | 31 ×10⁻⁶ cm/s | 71 µL/min/mg
4 | CC(C)C[C@H]1C(=O)N(C)[C@@H](Cc2ccccc2)C(=O)N[C@@H]([C@@H](C)O)C(=O)N(C)[C@@H](C)C(=O)N(C)[C@@H](CC(C)C)C(=O)N[C@@H](C(C)C)C(=O)N(C)[C@@H](CC(C)C)C(=O)N[C@H](C(=O)N(C)[C@@H](Cc2ccccc2)C(=O)N[C@@H](C)C(=O)N2CCCCC2)CC(=O)N(C)CC(=O)N1C [DP-202] ([Sar][NMeL][NMeF]T[NMeA][NMeL]V[NMeL]D[NMeF]A-Piperidide; lactam N-9) |  |  | 55 ×10⁻⁶ cm/s | 134 µL/min/mg
5 | CC[C@H](C)[C@@H]1NC(=O)CCCCCc2ccc(cc2)C[C@@H](C(=O)N2CCCCC2)NC(=O)[C@H](Cc2ccccc2)N(C)C(=O)[C@H](CC(C)C)N(C)C(=O)[C@H](C)N(C)C(=O)[C@H](Cc2ccccc2)N(C)C(=O)[C@H]([C@@H](C)O)NC(=O)[C@H](CC(C)C)N(C)C(=O)[C@H](C)N(C)C(=O)[C@H](CC(C)C)N(C)C1=O [DP-868] (I[NMeL][NMeA][NMeL]T[NMeF][NMeA][NMeL][NMeF][Phe(4-(CH2)5CO)]-Piperidide; lactam N-10) |  |  | 0.24 ×10⁻⁶ cm/s | 61 µL/min/mg
6 | CC[C@H](C)[C@@H]1NC(=O)[C@H](CC(C)C)N(C)C(=O)[C@H](C)N(C)C(=O)[C@@H](C)NC(=O)C[C@@H](C(=O)N2CCCCC2)NC(=O)[C@H](CC(C)C)N(C)C(=O)[C@H](C)N(C)C(=O)[C@H]([C@@H](C)O)NC(=O)[C@H](Cc2ccccc2)N(C)C(=O)[C@H](Cc2ccccc2)N(C)C1=O [DP-136] ([dA][NMeA][NMeL]I[NMeF][NMeF]T[NMeA][NMeL]D-Piperidide; lactam N-10) |  |  | 35 ×10⁻⁶ cm/s | 147 µL/min/mg
7 | CC[C@H](C)[C@@H]1NC(=O)[C@H](C)N(C)C(=O)[C@@H](C)N(C)C(=O)C[C@H](C)NC(=O)[C@H](CC(C)C)N(C)C(=O)[C@H](C)N(C)C(=O)[C@H](Cc2ccccc2)N(C)C(=O)[C@H]([C@@H](C)O)NC(=O)[C@H](Cc2ccccc2)N(C)C(=O)[C@H](CC(C)C)N(C)C1=O [DP-783] (cyclo(I[NMeL][NMeF]T[NMeF][NMeA][NMeL][β3hA][dNMeA][NMeA])) | 31 ×10⁻⁶ cm/s | 269 µL/min/mg |  | 
